In series [1] the target is CDK9/cyclin T1 (Homo sapiens, UniProt P50750). In words: CDK 9 assay (CTD peptide substrate). In kind it is biochemical. The settings on record: read-out: Kinase Inhibition pIC50 CDK9-cyclin T1 (converted). A digest of the protocol:
(§1)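 Radiometric assay: recombinant human CDK9/cyclin T1 or CDK7/cyclin H with biotinylated CTD heptapeptide-repeat substrate, 100 μM ATP with [γ-32P]ATP, 15 mM MgCl2, MOPS pH 7.2, 45 min at 30 °C. Avidin-captured substrate filtered onto P81; 32P incorporation counted by scintillation.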

Series [2] addresses CDK7/cyclin H (Homo sapiens, UniProt P50613). In words: CDK 7 assay (CTD peptide substrate). In kind it is biochemical. The settings on record: read-out: Kinase Inhibition pIC50 CDK7-cyclin H (converted). A digest of the protocol: as §1
Series [3] concerns the target CDK2-cyclin A (Homo sapiens, UniProt P24941). Briefly: Kinase assay (radioactive phosphate incorporation), CDK2-cyclin A. The format is biochemical. The settings on record: read-out: Kinase Inhibition pIC50 CDK2-cyclin A (converted). In a few lines:
(§2)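 Recombinant kinases (2-4 μg) with polypeptide substrates in pH 7.4 MOPS/β-glycerophosphate buffer. Reactions started with 15 mM MgCl2 + 100 μM ATP containing [γ-32P]-ATP and incubated at 30° C. Filter-bound incorporated radioactivity counted by scintillation; compounds diluted from DMSO stocks into 10% DMSO buffer.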

Series [4] concerns the target CDK1-cyclin B (Homo sapiens, UniProt P06493). Briefly: Kinase assay (radioactive phosphate incorporation), CDK1-cyclin B. The format is biochemical. To be noted: read-out: Kinase Inhibition pIC50 CDK1-cyclin B (converted). In a few lines: as §2
In series [5] the target is CDK2-cycline E (Homo sapiens, UniProt P24941). In words: Kinase assay (radioactive phosphate incorporation), CDK2-cyclin E. In kind it is biochemical. The settings on record: read-out: Kinase Inhibition pIC50 CDK2-cycline E (converted). A digest of the protocol:
as §2

For series [6], the target named is GSK3b (Homo sapiens, UniProt P49841). In words: Kinase assay (radioactive phosphate incorporation), GSK-3b. In kind it is biochemical. To be noted: read-out: Kinase Inhibition pIC50 GSK-3b (converted). A digest of the protocol:
as §2

The target of series [7] is T1, Flt3 (FMS-like tyrosine kinase-3) (Homo sapiens, UniProt P36888).
T1 sequence (P36888 27-993): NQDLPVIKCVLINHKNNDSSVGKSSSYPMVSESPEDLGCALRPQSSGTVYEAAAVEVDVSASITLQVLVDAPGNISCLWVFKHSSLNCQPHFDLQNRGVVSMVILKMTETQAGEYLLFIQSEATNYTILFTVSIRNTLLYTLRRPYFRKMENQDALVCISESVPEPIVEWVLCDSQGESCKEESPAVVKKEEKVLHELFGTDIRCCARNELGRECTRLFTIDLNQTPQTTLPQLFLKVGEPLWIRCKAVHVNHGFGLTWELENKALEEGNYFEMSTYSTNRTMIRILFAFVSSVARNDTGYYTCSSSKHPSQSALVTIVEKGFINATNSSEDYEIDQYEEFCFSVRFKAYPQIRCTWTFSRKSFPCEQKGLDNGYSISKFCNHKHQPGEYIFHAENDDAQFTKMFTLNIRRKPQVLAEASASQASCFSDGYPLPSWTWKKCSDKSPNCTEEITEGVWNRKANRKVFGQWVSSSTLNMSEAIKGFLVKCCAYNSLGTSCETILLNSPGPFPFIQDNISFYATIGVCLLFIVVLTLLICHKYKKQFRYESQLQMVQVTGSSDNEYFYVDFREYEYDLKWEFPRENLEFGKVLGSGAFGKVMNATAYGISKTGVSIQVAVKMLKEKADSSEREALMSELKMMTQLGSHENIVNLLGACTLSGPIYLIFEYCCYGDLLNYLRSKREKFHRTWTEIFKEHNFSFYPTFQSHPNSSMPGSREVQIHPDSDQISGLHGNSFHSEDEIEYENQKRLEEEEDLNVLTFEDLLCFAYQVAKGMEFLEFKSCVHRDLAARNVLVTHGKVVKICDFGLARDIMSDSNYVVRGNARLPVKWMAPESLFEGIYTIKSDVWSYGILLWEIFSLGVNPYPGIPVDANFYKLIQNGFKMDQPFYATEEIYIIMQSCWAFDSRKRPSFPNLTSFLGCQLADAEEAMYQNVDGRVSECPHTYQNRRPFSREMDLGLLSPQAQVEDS
In words: Kinase assay (radioactive phosphate incorporation), Flt3. In kind it is biochemical. To be noted: pIC50 is -log(IC50, M), read-out: Kinase Inhibition pIC50 Flt3 (converted). In a few lines: as §2

For series [8], the target named is CDK4-cyclin D1 (Homo sapiens, UniProt P11802). In words: Kinase assay (radioactive phosphate incorporation), CDK4-cyclin D1. In kind it is biochemical. To be noted: read-out: Kinase Inhibition pIC50 CDK4-cyclin D1 (converted). A digest of the protocol: as §2
Chain of CDK4-cyclin D1 (P11802 whole entry): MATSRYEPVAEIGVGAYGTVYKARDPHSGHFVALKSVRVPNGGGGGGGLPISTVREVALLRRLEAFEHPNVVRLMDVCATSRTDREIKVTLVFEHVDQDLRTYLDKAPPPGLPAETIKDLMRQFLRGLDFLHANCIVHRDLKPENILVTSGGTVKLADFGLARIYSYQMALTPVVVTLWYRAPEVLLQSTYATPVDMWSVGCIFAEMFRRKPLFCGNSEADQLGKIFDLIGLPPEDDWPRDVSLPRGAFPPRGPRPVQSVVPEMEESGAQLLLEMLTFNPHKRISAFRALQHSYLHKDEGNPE
Chain of CDK4-cyclin D1 (P24385 whole entry partner): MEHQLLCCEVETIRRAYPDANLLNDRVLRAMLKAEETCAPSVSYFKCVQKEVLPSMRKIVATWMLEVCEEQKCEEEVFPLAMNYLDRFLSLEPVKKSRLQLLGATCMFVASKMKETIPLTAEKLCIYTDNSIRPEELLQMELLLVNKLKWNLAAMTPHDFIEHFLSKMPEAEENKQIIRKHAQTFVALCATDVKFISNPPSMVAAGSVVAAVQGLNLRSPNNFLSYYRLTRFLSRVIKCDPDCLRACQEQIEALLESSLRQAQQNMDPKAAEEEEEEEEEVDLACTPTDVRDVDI
Series [9] concerns the target T2, Aurora A kinase (Homo sapiens, UniProt O14965).
T2 construct: purchased
T2 sequence (O14965 1-403): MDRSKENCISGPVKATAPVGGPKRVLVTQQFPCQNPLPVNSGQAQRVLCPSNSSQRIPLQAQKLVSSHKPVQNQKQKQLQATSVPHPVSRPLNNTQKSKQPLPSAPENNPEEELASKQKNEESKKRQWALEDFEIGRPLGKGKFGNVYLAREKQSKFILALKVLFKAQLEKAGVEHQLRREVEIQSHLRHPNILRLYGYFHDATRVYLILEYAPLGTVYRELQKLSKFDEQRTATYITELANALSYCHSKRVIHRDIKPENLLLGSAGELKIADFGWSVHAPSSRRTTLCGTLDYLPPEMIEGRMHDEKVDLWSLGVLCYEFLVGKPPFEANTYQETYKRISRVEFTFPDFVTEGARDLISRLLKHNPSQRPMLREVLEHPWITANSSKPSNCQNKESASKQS
Briefly: Aurora-A (human) kinase assay (Kemptide substrate). To be noted: pIC50 is -log(IC50, M); 15 μM ATP; read-out: Kinase Inhibition pIC50 Aurora A kinase (converted). In kind it is biochemical. In a few lines: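 Radiometric filter-binding assay: commercial aurora-A kinase (5-10 ng) with 200 μM Kemptide in MOPS/EDTA pH 7.0, started with 10 mM Mg acetate and 15 μM ATP plus [γ-33P]-ATP. Incubated 40 min at room temperature, stopped with phosphoric acid, incorporated 33P counted by scintillation.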

Chain of CDK1-cyclin B (P06493 whole entry): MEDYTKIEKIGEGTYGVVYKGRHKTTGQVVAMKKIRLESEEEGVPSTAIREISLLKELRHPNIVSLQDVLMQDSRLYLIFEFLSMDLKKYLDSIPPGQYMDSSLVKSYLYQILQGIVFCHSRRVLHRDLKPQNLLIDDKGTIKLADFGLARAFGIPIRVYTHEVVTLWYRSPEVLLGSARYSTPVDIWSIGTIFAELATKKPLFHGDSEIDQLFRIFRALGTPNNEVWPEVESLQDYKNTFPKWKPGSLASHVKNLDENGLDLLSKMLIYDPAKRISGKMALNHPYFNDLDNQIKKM
Chain of CDK1-cyclin B (P14635 whole entry partner): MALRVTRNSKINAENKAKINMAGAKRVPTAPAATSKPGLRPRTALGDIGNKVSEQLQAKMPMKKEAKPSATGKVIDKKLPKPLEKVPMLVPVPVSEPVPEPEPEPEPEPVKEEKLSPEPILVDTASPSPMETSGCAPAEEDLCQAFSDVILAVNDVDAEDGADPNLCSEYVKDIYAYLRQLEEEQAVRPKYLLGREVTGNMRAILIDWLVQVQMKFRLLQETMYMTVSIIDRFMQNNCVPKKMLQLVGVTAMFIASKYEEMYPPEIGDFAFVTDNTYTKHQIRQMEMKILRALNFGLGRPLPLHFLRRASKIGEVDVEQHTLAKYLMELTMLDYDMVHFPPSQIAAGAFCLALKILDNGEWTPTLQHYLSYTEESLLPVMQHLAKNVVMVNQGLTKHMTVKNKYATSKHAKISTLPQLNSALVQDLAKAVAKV
Chain of CDK7/cyclin H (P50613 whole entry): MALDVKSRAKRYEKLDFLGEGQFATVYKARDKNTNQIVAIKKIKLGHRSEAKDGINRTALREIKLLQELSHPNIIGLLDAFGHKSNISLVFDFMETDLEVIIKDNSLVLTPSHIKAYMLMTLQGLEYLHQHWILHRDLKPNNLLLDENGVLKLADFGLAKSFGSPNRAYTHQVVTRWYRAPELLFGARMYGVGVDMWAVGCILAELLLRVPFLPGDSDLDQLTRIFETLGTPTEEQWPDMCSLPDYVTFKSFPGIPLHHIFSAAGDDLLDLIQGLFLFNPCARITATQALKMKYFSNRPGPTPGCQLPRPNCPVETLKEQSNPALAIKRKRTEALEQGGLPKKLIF
Chain of CDK7/cyclin H (P51946 whole entry partner): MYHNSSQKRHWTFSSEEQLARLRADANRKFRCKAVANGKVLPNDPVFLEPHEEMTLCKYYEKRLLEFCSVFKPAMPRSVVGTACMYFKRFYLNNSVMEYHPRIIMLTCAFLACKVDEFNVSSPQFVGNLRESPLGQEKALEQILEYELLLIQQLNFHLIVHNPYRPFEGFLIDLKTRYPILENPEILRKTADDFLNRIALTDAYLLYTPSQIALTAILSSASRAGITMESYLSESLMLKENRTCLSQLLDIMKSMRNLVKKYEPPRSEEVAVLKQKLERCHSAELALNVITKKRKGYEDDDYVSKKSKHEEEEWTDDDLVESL
Chain of CDK9/cyclin T1 (P50750 whole entry): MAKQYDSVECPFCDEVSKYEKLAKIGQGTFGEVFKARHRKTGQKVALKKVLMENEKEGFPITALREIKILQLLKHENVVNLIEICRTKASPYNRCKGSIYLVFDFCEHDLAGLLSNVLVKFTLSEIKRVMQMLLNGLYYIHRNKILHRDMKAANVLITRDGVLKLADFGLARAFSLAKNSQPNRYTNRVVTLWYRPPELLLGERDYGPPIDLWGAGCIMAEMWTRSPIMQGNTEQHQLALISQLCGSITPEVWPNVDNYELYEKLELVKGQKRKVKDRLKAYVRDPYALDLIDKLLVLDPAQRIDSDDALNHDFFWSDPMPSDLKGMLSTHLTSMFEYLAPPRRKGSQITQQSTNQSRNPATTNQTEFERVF
Chain of CDK9/cyclin T1 (O60563 whole entry partner): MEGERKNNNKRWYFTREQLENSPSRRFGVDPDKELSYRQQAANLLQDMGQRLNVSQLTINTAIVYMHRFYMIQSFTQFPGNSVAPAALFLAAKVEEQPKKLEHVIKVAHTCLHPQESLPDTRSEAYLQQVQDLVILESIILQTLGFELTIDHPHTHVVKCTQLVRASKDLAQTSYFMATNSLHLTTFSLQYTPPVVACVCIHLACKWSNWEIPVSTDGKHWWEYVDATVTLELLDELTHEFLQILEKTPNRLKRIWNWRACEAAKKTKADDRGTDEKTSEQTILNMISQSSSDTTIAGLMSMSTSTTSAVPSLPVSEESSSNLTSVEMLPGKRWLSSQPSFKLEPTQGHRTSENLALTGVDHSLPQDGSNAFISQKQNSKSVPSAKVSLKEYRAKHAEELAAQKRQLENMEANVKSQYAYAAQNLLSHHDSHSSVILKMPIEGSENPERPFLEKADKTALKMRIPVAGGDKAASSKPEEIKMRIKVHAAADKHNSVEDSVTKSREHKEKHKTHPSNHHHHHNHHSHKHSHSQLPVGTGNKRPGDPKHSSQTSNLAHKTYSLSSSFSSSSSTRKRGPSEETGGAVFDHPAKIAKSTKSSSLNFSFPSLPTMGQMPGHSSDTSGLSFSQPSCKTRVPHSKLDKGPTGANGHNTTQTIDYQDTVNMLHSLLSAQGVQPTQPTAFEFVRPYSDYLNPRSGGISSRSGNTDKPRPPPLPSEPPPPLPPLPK
Chain of GSK3b (P49841 whole entry, species assumed): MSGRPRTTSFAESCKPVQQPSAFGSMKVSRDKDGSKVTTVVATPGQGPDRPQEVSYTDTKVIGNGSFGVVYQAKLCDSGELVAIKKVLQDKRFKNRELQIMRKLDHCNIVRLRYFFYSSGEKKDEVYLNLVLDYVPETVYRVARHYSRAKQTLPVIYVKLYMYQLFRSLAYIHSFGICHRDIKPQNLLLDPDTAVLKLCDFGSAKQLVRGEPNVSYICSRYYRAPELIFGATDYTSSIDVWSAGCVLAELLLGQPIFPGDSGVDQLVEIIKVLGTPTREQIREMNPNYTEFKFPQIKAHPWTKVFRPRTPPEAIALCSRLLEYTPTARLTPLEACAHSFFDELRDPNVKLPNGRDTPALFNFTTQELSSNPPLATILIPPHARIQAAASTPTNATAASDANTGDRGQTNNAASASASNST

As a reminder, the melting point is the temperature of the solid-liquid transition. With `CCNc1nc(C)c(-c2ccnc(Nc3cccc(S(=O)(=O)NCCO)c3)n2)s1` [Compound 75, 3-[4-(2-Ethylamino-4-methyl-thiazol-5-yl)-pyrimidin-2-ylamino]-N-(2-hydroxy-ethyl)-benzenesulfonamide], the melting point fell in the range of 124 to 125 °C. In addition, the IC50 in [1] was 63.1 nM. Moreover, the IC50 in [2] was 398 nM. In addition, the IC50 in series [3] is 1260 nM. In addition, in [4], the IC50 was 1000 nM. For the same compound, the IC50 in [5] was 200 nM. In addition, the IC50 in series [6] is 794 nM. Further, the IC50 in [7] is 63.1 nM. In addition, the IC50 in series [8] is 126 nM.
As to `CNc1nc(C)c(-c2ccnc(Nc3cccc(S(=O)(=O)NCCO)c3)n2)s1` [Compound 76, N-(2-Hydroxy-ethyl)-3-[4-(4-methyl-2-methylamino-thiazol-5-yl)-pyrimidin-2-ylamino]-benzenesulfonamide], the melting point was in the range of 189 to 190 °C. Also, in [1], the IC50 is 63.1 nM. Also, in [9], the IC50 was 39.8 nM. The IC50 in [2] was 794 nM. In addition, the IC50 in series [3] was 1580 nM. In addition, the IC50 in [4] was 1260 nM. Besides, in [5], the IC50 was 316 nM. Also, in [6], the IC50 was 501 nM. The IC50 in series [7] is 100 nM. Moreover, the IC50 in series [8] was 100 nM.
